Data on 6 compounds can be found in article PMC10111022, “Comparison of pharmacological inhibitors of lysine-specific demethylase 1 in glioblastoma stem cells reveals inhibitor-specific efficacy profiles” (Frontiers in Neurology, 2023).

The subject of one series is MDA-GSC 262. Kind of series: Cell viability dose response (IC50), MDA-GSC 262. It is filed as cell-based. Particulars: Homo sapiens, mean of three independent experiments. Here is the method:
(§1) MDA-GSCs were plated at 50,000 cells/well into 12-well plates at and allowed to grow for 5 days until neurospheres were formed. The cells were then treated with either TCP, GSK-LSD1, or RN-1 at various concentrations for 5 days. Next, the cells were collected and neurospheres were dissociated with Accutase (BioLegend; San Diego, CA). Cell viability was determined using a trypan dye exclusion assay and read with the Vi-Cell XR Cell Viability Analyzer (Beckman Coulter; Brea, CA). NHAs were plated at 50,000 cells/well into 12-well plates and allowed to adhere overnight. The following day, NHAs were treated with the LSD1 inhibitors. After 5 days, the cells were detached using TrypLE and assessed with the trypan blue dye exclusion assay.
(§2) The alamarBlue cell viability (Bio-Rad; Hercules, CA) was performed on the MDA-GSCs according to the manufacturer’s protocol. The cells were plated at 5,000 cell/well into a 96-well plate and allowed to grow for 5 days. After 5 days, the alamarBlue reagent was added and fluorescence was measured with the Synergy 2 (BioTek Instruments; Winooski, VT) plate reader according to the manufacturer’s protocol.

Another series relates to MDA-GSC 6–27. Kind of series: Cell viability dose response (IC50), MDA-GSC 6–27. The series is classed as cell-based. Particulars: Homo sapiens, mean of three independent experiments. On the procedure:
as §1, §2

A further series has as its system MDA-GSC 20. Kind of series: Cell viability dose response (IC50), MDA-GSC 20. It is filed as cell-based. Conditions: Homo sapiens, mean of three independent experiments. Here is the method:
as §1, §2

The subject of the next series is MDA-GSC 8–11. Kind of series: Cell viability dose response (IC50), MDA-GSC 8–11. It is filed as cell-based. Conditions: Homo sapiens, mean of three independent experiments. Here is the method:
as §1, §2

In the next series the test system is MDA-GSC 311. Kind of series: Cell viability dose response (IC50), MDA-GSC 311. It is filed as cell-based. Conditions: Homo sapiens, mean of three independent experiments. On the procedure: as §1, §2
The subject of the next series is MDA-GSC 7–2. Kind of series: Cell viability dose response (IC50), MDA-GSC 7–2. Particulars: Homo sapiens, mean of three independent experiments. It is filed as cell-based. Here is the method:
as §1, §2

A further series concerns MDA-GSC 17. The series is described as follows: Cell viability dose response (IC50), MDA-GSC 17. The series is classed as cell-based. Particulars: Homo sapiens, mean of three independent experiments. Here is the method: as §1, §2
A further series has as its system MDA-GSC 23. Kind of series: Cell viability dose response (IC50), MDA-GSC 23. The series is classed as cell-based. Particulars: Homo sapiens, mean of three independent experiments. On the procedure: as §1, §2
The test system of another series is MDA-GSC 7–11. Kind of series: Cell viability dose response (IC50), MDA-GSC 7–11. It is filed as cell-based. Conditions: Homo sapiens, mean of three independent experiments. On the procedure: as §1, §2
The next series has as its system NHA. The series is described as follows: Cell viability dose response (IC50), normal human astrocytes. It is filed as cell-based. Particulars: for IC50: Homo sapiens, Astrocyte, mean of three independent experiments; for effect on NHA viability: NHA treated at the maximum concentration tested for each compound. On the procedure:
as §1, §2

In another series the test system is MDA-GSC lines. Kind of series: Cell viability across the panel of nine MDA-GSC lines. It is filed as cell-based, Human. Conditions: for concentrations at which MDA-GSC viability was reduced: many/several MDA-GSC lines, dose response curves Figure 2. Here is the method: as §1, §2
Details of series [1]: method as in personal communications, Salarius Pharmaceuticals. Conditions: ref personal communications, Salarius Pharmaceuticals; cited from earlier work.
On the set-up of series [2]: method as in PMID 34786883, PMID 33052756. Conditions: safety studies; cited from earlier work.
In the next series the test system is MDA-GSC17. The series is described as follows: qPCR of resistance-related genes, MDA-GSC17. It is filed as cell-based, Human. Particulars: MDA-GSC17 (sensitive). Here is the method:
(§3) Total RNA was extracted using RNeasy Plus Mini Kit (Qiagen; Hilden, Germany) following the manufacturer’s protocol. cDNA was synthesized with the iScript cDNA synthesis kit (Bio-Rad; Hercules, CA), qPCR was performed using Forget-Me-Not EvaGreen qPCR kit (Biotium; Fremont, CA), and samples were analyzed with the LightCycler96 (Roche; Basel, Switzerland). Cq values were normalized to PPIA and reported as relative fold change from untreated control.
On the technique in general: Quantitative PCR measures a nucleic acid by following its amplification.

The next series concerns MDA-GSC7-2. Kind of series: qPCR of resistance-related genes, MDA-GSC7-2. The series is classed as cell-based, Human. Particulars: MDA-GSC7-2 (sensitive). Here is the method: as §3
The test system of the next series is MDA-GSC20. The series is described as follows: qPCR of resistance-related genes, MDA-GSC20. The series is classed as cell-based, Human. Conditions: MDA-GSC20 (resistant). On the procedure:
as §3

The subject of the next series is MDA-GSC8-11. The series is described as follows: qPCR of resistance-related genes, MDA-GSC8-11. It is filed as cell-based, Human. Conditions: MDA-GSC8-11 (resistant). Here is the method:
as §3

Regarding `CN1CCN(C(=O)CN[C@H]2C[C@@H]2c2ccc(OCc3ccccc3)cc2)CC1` [RN-1], the IC50 (usually the concentration that inhibits the measured activity by half) is more than 50 µM with MDA-GSC 262; 23.8 µM in the series on MDA-GSC 6–27; 39.8 µM in the series with MDA-GSC 20; more than 50 µM in the series with MDA-GSC 8–11; more than 50 µM in the series with MDA-GSC 311; more than 50 µM in the series on MDA-GSC 7–2. Also, the IC50 in the series with MDA-GSC 17 is 22.5 µM; in the series with MDA-GSC 23 it was more than 50 µM; with MDA-GSC 7–11, more than 50 µM; in the series with NHA (NHA) it was more than 50 µM. In the series with NHA, the “effect on NHA viability” value was “minimal effect”. Moreover, the “concentrations at which MDA-GSC viability was reduced” value with MDA-GSC lines was in the range of 20 to 50 µM.
Consider `C/C(=N\NC(=O)c1cccc(S(=O)(=O)N2CCN(C)CC2)c1)c1cc(Cl)ccc1O` [SP-2577], for which the IC50 was 8.8 µM in the series on MDA-GSC 262; 6.8 µM with MDA-GSC 6–27; more than 25 µM in the series on MDA-GSC 20; 12.4 µM in the series with MDA-GSC 8–11; 23.6 µM with MDA-GSC 311; 9.7 µM with MDA-GSC 7–2. The IC50 came to 15.7 µM in the series on MDA-GSC 17, 16.8 µM with MDA-GSC 23, 5.6 µM in the series with MDA-GSC 7–11 and 2.3 µM in the series on NHA (NHA). In addition, the “crossing of the blood brain barrier” value in series [1] is “has not been found to cross the blood brain barrier”. Further, the “activity in noncancerous cells, NHA” value in the series with NHA (NHA, Figure 2J) was “strong activity”. Also, the “concentrations at which MDA-GSC viability was reduced” value with MDA-GSC lines was “less than 10 μM”.
`CN1CCN(C(=O)[C@H](CCCN[C@@H]2C[C@H]2c2ccc(F)cc2)NC(=O)c2ccc(-n3ccnn3)cc2)CC1` [IMG-7289]: the IC50 was 41.2 µM in the series with MDA-GSC 262; 39.9 µM with MDA-GSC 6–27; 66.9 µM in the series with MDA-GSC 20; 56.1 µM in the series with MDA-GSC 8–11; more than 125 µM in the series on MDA-GSC 311; 32.1 µM in the series on MDA-GSC 7–2. For the same compound, the IC50 in the series on MDA-GSC 17 turned out to be 87.4 µM; in the series with MDA-GSC 23, 34.2 µM; with MDA-GSC 7–11 it was 23.6 µM; in the series with NHA (NHA), 38.2 µM. Moreover, the “neurotoxic effects in human trials” value in [2] is listed as “have not revealed any neurotoxic effects”. In the series with MDA-GSC lines, the “concentrations at which MDA-GSC viability was reduced” value was less than 50 µM.
Regarding `Nc1nnc(CN[C@@H]2C[C@H]2c2ccc(OCc3ccccc3)cc2)o1` [ORY-2001], the IC50 in the series with MDA-GSC 262 is more than 50 µM; with MDA-GSC 6–27 it was more than 50 µM; in the series with MDA-GSC 20, more than 50 µM; in the series with MDA-GSC 8–11, more than 50 µM; with MDA-GSC 311, 45.6 µM; in the series on MDA-GSC 7–2 it was more than 50 µM. In addition, the IC50 in the series with MDA-GSC 17 is more than 50 µM; with MDA-GSC 23, 48.1 µM; in the series on MDA-GSC 7–11, 42.1 µM; in the series on NHA (NHA), more than 50 µM; in the series on MDA-GSC lines (Homo sapiens, majority of MDA-GSCs, maximum dose 50 μM) it was more than 50 µM.
Take `N[C@H]1CC[C@H](N[C@@H]2C[C@H]2c2ccccc2)CC1` [ORY-1001]: the IC50 was 92.7 µM in the series with MDA-GSC 262; 72.8 µM with MDA-GSC 6–27; 54.8 µM in the series on MDA-GSC 20; 64.5 µM with MDA-GSC 8–11; more than 150 µM with MDA-GSC 311; 87.7 µM in the series on MDA-GSC 7–2. The 50% inhibitory concentration (IC50) in the series with MDA-GSC 17 came out at 107 µM; in the series on MDA-GSC 23 it was 97.8 µM; in the series with MDA-GSC 7–11 it was 64.7 µM; in the series with NHA (NHA) it was 96.3 µM. In series [2], the “neurotoxic effects in human trials” value was “have not revealed any neurotoxic effects”. Besides, the “concentrations at which MDA-GSC viability was reduced” value in the series with MDA-GSC lines was in the range of 50 to 90 µM.
Take `NC1CC1c1ccccc1` (stereo not shown) [TCP, tranylcypromine]: the IC50 with MDA-GSC 262 is 4100 µM; with MDA-GSC 6–27, more than 5000 µM; in the series on MDA-GSC 20, 4700 µM; with MDA-GSC 8–11, more than 5000 µM; in the series with MDA-GSC 311, 3500 µM; in the series with MDA-GSC 7–2, 2700 µM. Besides, the IC50 in the series with MDA-GSC 17 was 2200 µM; with MDA-GSC 23 it was 2700 µM; in the series on MDA-GSC 7–11 it was more than 5000 µM; in the series with NHA (NHA), more than 5000 µM. Also, the “expression of resistance-related genes” value in the series with MDA-GSC17 was “did not significantly increase”; in the series with MDA-GSC8-11, “increase in two of the resistance related genes”. Moreover, the figures for the “expression of resistance-related genes (FTH1, RAB39B, HKDC1, FAM213A)” value in the series on MDA-GSC7-2 and with MDA-GSC20 were “only minimal effects” and “consistently increased”, respectively. In addition, in the series on NHA, the “effect on NHA viability” value is listed as “minimal effect”. Also, in the series on MDA-GSC lines (MDA-GSC lines, Figure 2C), the “effects on cell viability” value is listed as “not seen until mM concentrations”.
